According to PubChem BioAssay AID1963983 (Molecular Pharmacology Branch, DTP, NCI, 2024):
Where “and” joins values, the source holds several entries; their conditions need not be identical. Identical values can stand only once.

System: 186277-243-T-J2-PDC multi-cell spheroid viability
Experiment: Anticancer human tumor 186277-243-T-J2-PDC patient-derived colon adenocarcinoma cell line growth inhibition [PI3K]
Details: for viability, T/C: stronger effect = lower value
Outline: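 Complex 3D spheroids (cancer cells + endothelial HUVEC + mesenchymal stem cells); drug pairs of targeted agent x inavolisib/alpelisib/duvelisib/copanlisib; half-log series from ~Cmax, max 10 microM if Cmax unknown; endpoint viability.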

[1] = curve of first compound, second compound 0.0316 µM
[2] = curve of first compound, second compound 0.1 µM
[3] = curve of first compound, second compound 0.316 µM
[4] = curve of first compound, second compound 1 µM
[5] = second compound 0.0316 µM, first compound 0.0316 µM
[6] = second compound 0.0316 µM, first compound 0.1 µM
[7] = second compound 0.0316 µM, first compound 0.316 µM
[8] = second compound 0.0316 µM, first compound 1 µM
[9] = second compound 0.0316 µM, first compound 3.16 µM
[10] = second compound 0.0316 µM, first compound 10 µM
[11] = second compound 0.1 µM, first compound 0.0316 µM
[12] = second compound 0.1 µM, first compound 0.1 µM
[13] = second compound 0.1 µM, first compound 0.316 µM
[14] = second compound 0.1 µM, first compound 1 µM
[15] = second compound 0.1 µM, first compound 3.16 µM
[16] = second compound 0.1 µM, first compound 10 µM
[17] = second compound 0.316 µM, first compound 0.0316 µM
[18] = second compound 0.316 µM, first compound 0.1 µM
[19] = second compound 0.316 µM, first compound 0.316 µM
[20] = second compound 0.316 µM, first compound 1 µM
[21] = second compound 0.316 µM, first compound 3.16 µM
[22] = second compound 0.316 µM, first compound 10 µM
[23] = second compound 1 µM, first compound 0.0316 µM
[24] = second compound 1 µM, first compound 0.1 µM
[25] = second compound 1 µM, first compound 0.316 µM
[26] = second compound 1 µM, first compound 1 µM
[27] = second compound 1 µM, first compound 3.16 µM
[28] = second compound 1 µM, first compound 10 µM
[29] = curve of first compound, second compound 0.00316 µM
[30] = curve of first compound, second compound 0.01 µM
[31] = second compound 0.00316 µM, first compound 0.0316 µM
[32] = second compound 0.00316 µM, first compound 0.1 µM
[33] = second compound 0.00316 µM, first compound 0.316 µM
[34] = second compound 0.00316 µM, first compound 1 µM
[35] = second compound 0.00316 µM, first compound 3.16 µM
[36] = second compound 0.00316 µM, first compound 10 µM
[37] = second compound 0.01 µM, first compound 0.0316 µM
[38] = second compound 0.01 µM, first compound 0.1 µM
[39] = second compound 0.01 µM, first compound 0.316 µM
[40] = second compound 0.01 µM, first compound 1 µM
[41] = second compound 0.01 µM, first compound 3.16 µM
[42] = second compound 0.01 µM, first compound 10 µM
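Also: spheroids exposed to compounds for seven days before viability reading.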
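For viability, T/C in this document: 100% = DMSO vehicle control viability.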

For Cn1nccc1Nc1nccc(-c2ccn(C(CO)c3ccc(Cl)c(F)c3)c(=O)c2)n1 (stereo not given) + CC(Nc1ncnc2nc[nH]c12)c1cc2cccc(Cl)c2c(=O)n1-c1ccccc1, the IC50 [1] was 2800 nM, the IC50 [2] was 2380 nM and the IC50 [3] was 2400 nM. It also gave an IC50 [4] of 2090 nM, an IC50 (curve of first compound, second compound 3.16 µM) of 1160 nM and an IC50 (curve of first compound, second compound 10 µM) of 339 nM. The viability, T/C [5] was 82.5%, the viability, T/C [6] was 86.9% and the viability, T/C [7] was 112%. For the same compound, the viability, T/C [8] was 83.7%, the viability, T/C [9] was 46.3% and the viability, T/C [10] was 23.6%. It also gave a viability, T/C [11] of 85.3%, a viability, T/C [12] of 103% and a viability, T/C [13] of 107%. The viability, T/C [14] was 89.1%, the viability, T/C [15] was 37.2% and the viability, T/C [16] was 26.2%. For the same compound, the viability, T/C [17] was 94.7%, the viability, T/C [18] was 96.1% and the viability, T/C [19] was 125%. For the same compound, the viability, T/C [20] was 83.1%, the viability, T/C [21] was 40.9% and the viability, T/C [22] was 23.7%. For the same compound, the viability, T/C [23] was 94.3%, the viability, T/C [24] was 101% and the viability, T/C [25] was 103%. For the same compound, the viability, T/C [26] was 75.7%, the viability, T/C [27] was 36.3% and the viability, T/C [28] was 24.3%. For the same compound, the viability, T/C (second compound 3.16 µM, first compound 0.0316 µM) was 106%, the viability, T/C (second compound 3.16 µM, first compound 0.1 µM) was 100% and the viability, T/C (second compound 3.16 µM, first compound 0.316 µM) was 105%. The viability, T/C (second compound 3.16 µM, first compound 1 µM) was 53.9%, the viability, T/C (second compound 3.16 µM, first compound 3.16 µM) was 27.6% and the viability, T/C (second compound 3.16 µM, first compound 10 µM) was 20.8%. The viability, T/C (second compound 10 µM, first compound 0.0316 µM) was 88.7%, the viability, T/C (second compound 10 µM, first compound 0.1 µM) was 91.4% and the viability, T/C (second compound 10 µM, first compound 0.316 µM) was 51%. It also gave a viability, T/C (second compound 10 µM, first compound 1 µM) of 27.5%, a viability, T/C (second compound 10 µM, first compound 3.16 µM) of 24.5% and a viability, T/C (second compound 10 µM, first compound 10 µM) of 15.5%.

In the case of Cn1cnc2c(F)c(Nc3ccc(Br)cc3Cl)c(C(=O)NOCCO)cc21, the viability, T/C (compound 0.00949 µM) is reported as 97.9% [middle of 4 runs], the viability, T/C (compound 0.03 µM) is reported as 87.4% [middle of 4 runs] and the viability, T/C (compound 0.0949 µM) is reported as 61.9% [middle of 4 runs]. The viability, T/C (compound 0.3 µM) was 38% and 43.4% (2×) and 37.6%, the viability, T/C (compound 0.949 µM) was 22.7% [middle of 4 runs] and the viability, T/C (compound 3 µM) was 9.95% [middle of 4 runs]. The IC50 (curve of compound) was 193 nM [middle of 4 runs].

C[C@@H](NC(=O)c1ncnc(N)c1Cl)c1ncc(C(=O)Nc2cc(C(F)(F)F)c(Cl)cn2)s1 + COc1c(OCCCN2CCOCC2)ccc2c3n(c(=NC(=O)c4cnc(N)nc4)nc12)CCN3 was tested, and the IC50 [29] was over 10000 nM, the IC50 [30] was 8020 nM and the IC50 [1] was 1640 nM. It also gave an IC50 [2] of under 31.6 nM, an IC50 [3] of under 31.6 nM and an IC50 [4] of under 31.6 nM. The viability, T/C [31] was 97.9%, the viability, T/C [32] was 94% and the viability, T/C [33] was 107%. It also gave a viability, T/C [34] of 90.4%, a viability, T/C [35] of 108% and a viability, T/C [36] of 67.7%. It also gave a viability, T/C [37] of 128%, a viability, T/C [38] of 102% and a viability, T/C [39] of 113%. The viability, T/C [40] was 96.9%, the viability, T/C [41] was 98.4% and the viability, T/C [42] was 38.7%. For the same compound, the viability, T/C [5] was 87.7%, the viability, T/C [6] was 82% and the viability, T/C [7] was 81.6%. The viability, T/C [8] was 68.5%, the viability, T/C [9] was 25.9% and the viability, T/C [10] was 5.51%. The viability, T/C [11] was 37.9%, the viability, T/C [12] was 30.7% and the viability, T/C [13] was 25.7%. For the same compound, the viability, T/C [14] was 13.2%, the viability, T/C [15] was 7.38% and the viability, T/C [16] was 4.45%. The viability, T/C [17] was 7.07%, the viability, T/C [18] was 7.19% and the viability, T/C [19] was 7.95%. For the same compound, the viability, T/C [20] was 6.31%, the viability, T/C [21] was 1.83% and the viability, T/C [22] was 1.23%. For the same compound, the viability, T/C [23] was 4.1%, the viability, T/C [24] was 2.89% and the viability, T/C [25] was 2.41%. The viability, T/C [26] was 2.48%, the viability, T/C [27] was 1.54% and the viability, T/C [28] was 0.23%.

With C#Cc1c(F)ccc2cc(O)cc(-c3ncc4c(N5CC6CCC(C5)N6)nc(OCC56CCCN5CC(F)C6)nc4c3F)c12 (stereo not given) the viability, T/C (compound 0.0316 µM) was 90.4% [middle of 4 runs], the viability, T/C (compound 0.1 µM) was 40.8% [middle of 4 runs] and the viability, T/C (compound 0.316 µM) was 25.4% [middle of 4 runs]. For the same compound, the viability, T/C (compound 1 µM) was 15.6% [middle of 4 runs], the viability, T/C (compound 3.16 µM) was 14.8% [middle of 4 runs] and the viability, T/C (compound 10 µM) was 11.7% [middle of 4 runs]. For the same compound, the IC50 (curve of compound) was 80.8 nM [middle of 4 runs].

In the case of CC(=O)c1c(C)c2cnc(Nc3ccc(N4CCNCC4)cn3)nc2n(C2CCCC2)c1=O, the viability, T/C (compound 0.000316 µM) is reported as 97.1% [middle of 4 runs], the viability, T/C (compound 0.001 µM) is reported as 91.1% [middle of 4 runs] and the viability, T/C (compound 0.00316 µM) is reported as 91.5% and 103% and 102% (2×). The viability, T/C (compound 0.01 µM) was 105% [middle of 4 runs] and the IC50 (curve of compound) was over 100 nM.

Compound CC(C)NCC(C(=O)N1CCN(c2ncnc3c2C(C)CC3O)CC1)c1ccc(Cl)cc1 (stereo not given) + CC(Nc1ccc2c(c1)OCCn1cc(N3C(=O)OCC3C(F)F)nc1-2)C(N)=O has an IC50 [29] of 1120 nM, an IC50 [30] of 774 nM and an IC50 [1] of 648 nM. For the same compound, the IC50 [2] was 355 nM, the IC50 [3] was 134 nM and the IC50 [4] was under 31.6 nM. It also gave a viability, T/C [31] of 92.9%, a viability, T/C [32] of 77.1% and a viability, T/C [33] of 64.1%. The viability, T/C [34] was 52%, the viability, T/C [35] was 39.6% and the viability, T/C [36] was 21.4%. For the same compound, the viability, T/C [37] was 95.3%, the viability, T/C [38] was 87.2% and the viability, T/C [39] was 62.2%. The viability, T/C [40] was 47%, the viability, T/C [41] was 29.8% and the viability, T/C [42] was 18.9%. The viability, T/C [5] was 104%, the viability, T/C [6] was 97% and the viability, T/C [7] was 71.4%. The viability, T/C [8] was 37.1%, the viability, T/C [9] was 19% and the viability, T/C [10] was 15%. The viability, T/C [11] was 100%, the viability, T/C [12] was 86.2% and the viability, T/C [13] was 51%. For the same compound, the viability, T/C [14] was 27.8%, the viability, T/C [15] was 17.1% and the viability, T/C [16] was 12.9%. The viability, T/C [17] was 75.9%, the viability, T/C [18] was 53.6% and the viability, T/C [19] was 37.6%. The viability, T/C [20] was 24%, the viability, T/C [21] was 11.8% and the viability, T/C [22] was 8.85%. For the same compound, the viability, T/C [23] was 40.1%, the viability, T/C [24] was 33.3% and the viability, T/C [25] was 24.5%. It also gave a viability, T/C [26] of 19.4%, a viability, T/C [27] of 17.1% and a viability, T/C [28] of 6.4%.
